In patent US20070185095A1, “Fused heterocyclic compounds and their use as metabotropic glutamate receptor antagonists” (AstraZeneca AB, priority 2004, published 2007):

Biological target: T1, human mGluR5d (Homo sapiens, UniProt P41594)
T1 construct: expressed in transfected cells
Test: FLIPR assay of [Ca2+]i mobilization in cells expressing human mGluR5d (Group I receptor antagonist activity)
Assay type: cell-based
Settings: antagonist block of agonist challenge
From the text: The pharmacological properties of the compounds of the invention can be analyzed using standard assays for functional activity. Examples of glutamate receptor assays are well known in the art as described in for example Aramori et al., Neuron 8:757 (1992), Tanabe et al., Neuron 8:169 (1992), Miller et al., J. Neuroscience 15: 6103 (1995), Balazs, et al., J. Neurochemistry 69:151 (1997). The methodology described in these publications is incorporated herein by reference. Conveniently, the compounds of the invention can be studied by means of an assay that measures the mobilization of intracellular calcium, [Ca^2+]i in cells expressing mGluR5. […]
FLIPR experiments were done using a laser setting of 0.800 W and a 0.4 second CCD camera shutter speed. […] After each addition of the compound, the fluorescence signal was sampled 50 times at 1 second intervals followed by 3 samples at 5 second intervals. Responses were measured as the peak height of the response within the sample period. […]
For FLIPR analysis, cells expressing human mGluR5d as described in WO97/05252 were seeded on collagen coated clear bottom 96-well plates with black sides and analysis of [Ca^2+]i mobilization was performed 24 h following seeding. […] After each addition the fluorescence signal was sampled 50 times at 1 second intervals followed by 3 samples at 5 second intervals. […]

T1 sequence (P41594 21-942 isoform P41594-3 limits assumed): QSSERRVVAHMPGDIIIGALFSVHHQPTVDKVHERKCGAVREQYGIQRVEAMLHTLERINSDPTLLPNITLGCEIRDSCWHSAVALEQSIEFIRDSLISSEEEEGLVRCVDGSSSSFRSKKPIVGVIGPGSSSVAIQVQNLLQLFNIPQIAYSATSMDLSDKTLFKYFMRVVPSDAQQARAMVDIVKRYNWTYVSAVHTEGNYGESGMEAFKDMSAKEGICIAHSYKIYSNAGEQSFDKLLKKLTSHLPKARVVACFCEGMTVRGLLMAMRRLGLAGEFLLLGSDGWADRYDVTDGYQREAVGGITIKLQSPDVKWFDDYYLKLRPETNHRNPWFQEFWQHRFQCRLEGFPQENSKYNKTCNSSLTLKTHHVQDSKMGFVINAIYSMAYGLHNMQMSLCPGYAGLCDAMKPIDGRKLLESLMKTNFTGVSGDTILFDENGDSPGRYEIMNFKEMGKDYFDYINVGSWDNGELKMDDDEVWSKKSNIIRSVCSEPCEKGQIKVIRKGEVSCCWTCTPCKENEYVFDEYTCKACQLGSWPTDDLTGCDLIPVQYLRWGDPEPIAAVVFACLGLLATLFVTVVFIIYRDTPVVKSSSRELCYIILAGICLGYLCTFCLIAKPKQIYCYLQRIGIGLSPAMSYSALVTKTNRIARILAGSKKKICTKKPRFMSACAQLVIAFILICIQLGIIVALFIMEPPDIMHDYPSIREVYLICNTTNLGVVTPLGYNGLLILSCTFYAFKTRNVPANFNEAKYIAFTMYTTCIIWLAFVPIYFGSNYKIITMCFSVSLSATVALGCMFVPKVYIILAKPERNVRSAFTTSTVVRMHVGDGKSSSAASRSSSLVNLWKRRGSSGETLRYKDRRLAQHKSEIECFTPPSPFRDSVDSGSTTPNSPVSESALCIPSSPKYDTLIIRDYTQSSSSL

IC50 | Compound
49 nM | Clc1cccc(-c2nc(CC3CCn4c(-c5ccncc5)nnc43)no2)c1 (centres unmarked) [7-{[5-(3-chlorophenyl)-1,2,4-oxadiazol-3-yl]methyl}-3-pyridin-4-yl-6,7-dihydro-5H-pyrrolo[2,1-c][1,2,4]triazole]
81 nM | CC(c1noc(-c2cccc(Cl)c2)n1)N1CCCCn2c(-c3ccncc3)nnc21 (centres unmarked) [9-{1-[5-(3-chlorophenyl)-1,2,4-oxadiazol-3-yl]ethyl}-3-pyridin-4-yl-6,7,8,9-tetrahydro-5H-[1,2,4]triazolo[4,3-a][1,3]diazepine]
